{"source": "patent US6642179B2", "about": "“Inhibition of vegetative growth” (priority 2000, dated 2003)", "origin": "cited, not measured here", "test_system": "grass", "settings": "versus 5-acetamido-2-methyltrifluoromethanesulfonanilide"}
{"smiles": "CC(=O)Nc1cc(NS(=O)(=O)C(F)(F)F)c(C)cc1C", "note": "[5-acetamido-2,4-dimethyltrifluoromethanesulfonanilide]", "values": [{"measurement": "effectiveness as grass growth regulator compared with 5-acetamido-2-methyltrifluoromethanesulfonanilide", "result": "much more effective grass growth regulator"}]}
